Measured values published in US20210379040A1, “COMBINATION TREATMENT OF LIVER DISORDERS” (Terns Pharmaceuticals, Inc., priority 2020, published 2021).
Counter-ions that a name gives are not always drawn. Like-named read-outs stand apart in the source and are kept apart here.

How the values were obtained:
[1] = cited from earlier work
[2] = system: FXR-regulated gene expression in human HuH7 hepatoma cells; test: cells; conditions: Huh-7, 11 h
Description: EC50 values for FXR-regulated gene expression were determined using a cell-based RNA assay.

[3] = male, human, in vivo
Description: (§1) SSAO inhibition was determined by measuring relative reductions in plasma H2O2 generation after addition of an exogenous substrate (benzylamine). […] Safety was assessed for 7 (±3) days after dosing.
(§2) Plasma PK parameters were determined by non-compartmental analysis. […] Percent change in total amine oxidase activity was determined relative to the corresponding pre-dose (baseline) samples.

[4] = Single-ascending dose clinical trial: plasma PK and safety
Description: as §1, §2

Compound: CC[C@H]1[C@@H](O)[C@@H]2[C@H](CC[C@]3(C)[C@@H]([C@H](C)CCNC(=O)NS(=O)(=O)c4ccc(C(C)(C)C)cc4)CC[C@@H]23)[C@@]2(C)CC[C@@H](O)C[C@@H]12 [EDP-305]
- pruritus in longer term studies [1]: known to result in pruritus

Compound: CC[C@H]1[C@@H](O)[C@@H]2[C@H](CC[C@]3(C)[C@@H]([C@H](C)CCC(=O)O)CC[C@@H]23)[C@@]2(C)CC[C@@H](O)C[C@@H]12 [OCA, obeticholic acid, reference compound]
- pruritus in longer term studies [1]: known to result in pruritus
- EC50 ([2]; read-out: EC50, BSEP Gene induction/HuH7): 200 nM
- EC50 ([2]; read-out: EC50, FGF-19 Gene Induction/HuH7): 130 nM
- EC50 ([2]; read-out: EC50, SHP Gene induction/HuH7): 200 nM

Compound: O=C(O)c1ccnc(N2CC(O)(c3ccc(OCc4c(-c5c(Cl)cccc5Cl)noc4C4CC4)cc3Cl)C2)c1 [cilofexor]
- pruritus in longer term studies [1]: known to result in pruritus

Compound: COC1CCN(c2ncc(OC/C(=C/F)CN)cn2)CC1 [tosylate salt of Compound 2]
- TEAE frequency: oral herpes [3]: 1 (3.1)
- Subject incidence of TEAEs considered possibly treatment-related ([4]; 1 mg or placebo (n = 8)): 0
- Subject incidence of any TEAE ([4]; 1 mg or placebo (n = 8)): 0
- TEAE frequency: constipation ([4]; 1 mg or placebo (n = 8)): 0
- TEAE frequency: contact dermatitis ([4]; 1 mg or placebo (n = 8)): 0
- TEAE frequency: dysgeusia ([4]; 1 mg or placebo (n = 8)): 0
- TEAE frequency: headache ([4]; 1 mg or placebo (n = 8)): 0
- TEAE frequency: sore throat ([4]; 1 mg or placebo (n = 8)): 0
- TEAE frequency: upper respiratory tract infection ([4]; 1 mg or placebo (n = 8)): 0
- Subject incidence of TEAEs considered possibly treatment-related ([4]; 3 mg or placebo (n = 8)): 0
- Subject incidence of any TEAE ([4]; 3 mg or placebo (n = 8)): 0
- TEAE frequency: constipation ([4]; 3 mg or placebo (n = 8)): 0
- TEAE frequency: contact dermatitis ([4]; 3 mg or placebo (n = 8)): 0
- TEAE frequency: dysgeusia ([4]; 3 mg or placebo (n = 8)): 0
- TEAE frequency: headache ([4]; 3 mg or placebo (n = 8)): 0
- TEAE frequency: sore throat ([4]; 3 mg or placebo (n = 8)): 0
- TEAE frequency: upper respiratory tract infection ([4]; 3 mg or placebo (n = 8)): 0
- Subject incidence of TEAEs considered possibly treatment-related ([4]; 6 mg (n = 8)): 0
- Subject incidence of any TEAE ([4]; 6 mg (n = 8)): 2 (25)
- TEAE frequency: constipation ([4]; 6 mg (n = 8)): 0
- TEAE frequency: contact dermatitis ([4]; 6 mg (n = 8)): 2 (25)
- TEAE frequency: dysgeusia ([4]; 6 mg (n = 8)): 0
- TEAE frequency: headache ([4]; 6 mg (n = 8)): 0
- TEAE frequency: sore throat ([4]; 6 mg (n = 8)): 1 (12.5)
- TEAE frequency: upper respiratory tract infection ([4]; 6 mg (n = 8)): 0
- Subject incidence of TEAEs considered possibly treatment-related ([4]; 10 mg or placebo (n = 8)): 1 (12.5)
- Subject incidence of any TEAE ([4]; 10 mg or placebo (n = 8)): 3 (37.5)
- TEAE frequency: constipation ([4]; 10 mg or placebo (n = 8)): 1 (12.5)
- TEAE frequency: contact dermatitis ([4]; 10 mg or placebo (n = 8)): 0
- TEAE frequency: dysgeusia ([4]; 10 mg or placebo (n = 8)): 1 (12.5)
- TEAE frequency: headache ([4]; 10 mg or placebo (n = 8)): 1 (12.5)
- TEAE frequency: sore throat ([4]; 10 mg or placebo (n = 8)): 0
- TEAE frequency: upper respiratory tract infection ([4]; 10 mg or placebo (n = 8)): 1 (12.5)
- Subject incidence of TEAEs considered possibly treatment-related ([4]; All (n = 32)): 1 (3.1)
- Subject incidence of any TEAE ([4]; All (n = 32)): 5 (15.6)
- TEAE frequency: constipation ([4]; All (n = 32)): 1 (3.1)
- TEAE frequency: contact dermatitis ([4]; All (n = 32)): 2 (6.3)
- TEAE frequency: dysgeusia ([4]; All (n = 32)): 1 (3.1)
- TEAE frequency: headache ([4]; All (n = 32)): 1 (3.1)
- TEAE frequency: sore throat ([4]; All (n = 32)): 1 (3.1)
- TEAE frequency: upper respiratory tract infection ([4]; All (n = 32)): 1 (3.1)
- clearance from plasma ([4]; single doses, healthy humans): rapidly cleared from plasma

Compound: O=C(O)c1cc(F)c2nc(N3[C@@H]4CC[C@H]3C[C@@H](OCc3c(-c5ccccc5OC(F)(F)F)noc3C3CC3)C4)sc2c1 [tropifexor]
- pruritus in longer term studies [1]: known to result in pruritus
